Assay results reported in patent publication US20240148767A1, “THE USE OF EMPAGLIFLOZIN FOR THE TREATMENT OF ULCERATIVE COLITIS AND CROHN'S DISEASE” (The Governors of the University of Alberta, priority 2021, published 2024).
“Also recorded” adds a separate entry of the source.

Tests used:
[1] = cited from earlier work
[2] = system: murine macrophages; details: murine macrophages in vitro, cited from earlier work
[3] = mice, 10 mg/kg dose; cited from earlier work
[4] = system: IL-10−/− mice with established colitis; assay: EMPA treatment of adult IL-10−/− mice with established colitis; assay type: in vivo, mouse
Text: Methods: In our colony, IL-10−/− mice begin to develop colitis between 8-12 weeks of age. […] Further, this dose was also chosen to match the active dose in humans by considering the differences in the metabolism and other pharmacokinetic parameters between mice and humans^55. The dose used in this study results in free plasma concentration of ˜20 nmol/L in mice^56 which is within the normal and safe range of that reported in humans^57-59. […] Adult IL-10^−/− mice with established colitis were treated with a daily gavage of EMPA (10 mg/kg; n=10) or vehicle (n=10) for 14 days. Disease activity was assessed by measurement of mouse weight, colonic weight and length, histological score, cytokine levels in colonic homogenate and lipocalin-2 levels in stool. To examine for possible direct effects of EMPA, colonic explants from wild-type and IL-10^−/− mice were incubated with increasing doses of EMPA (0.1-5 μM)±LPS for 2 hours and tissue levels of IL-1β and TNFα measured.
FIG. 4. Representative histological samples of colons. Colons were flushed with phosphate-buffered saline containing 0.1% gentamycin and immediately fixed in 10% v/v neutral buffered formalin. The fixed samples were paraffin-embedded, sectioned, and stained with hematoxylin and eosin. Disease scoring methods used were based on four scores: 1) epithelial hyperplasia (0-3), 2) enterocyte injury (0-3), 3) lymphocytes (0-2) and neutrophil infiltration (0-2) in the lamina propria. The total maximum histological score (10) is based on the sum of the individual scores. (A) control. (B) Empa.

[5] = healthy humans, dose matched to the human active dose; cited from earlier work
[6] = system: human THP-1 macrophages; details: pretreatment for 24 hours; cited from earlier work
[7] = system: SGLT2 over SGLT1; details: cited from earlier work
[8] = EMPA 10 mg/kg daily gavage, 14 days, p=0.04

SMILES: OC[C@H]1O[C@@H](c2ccc(Cl)c(Cc3ccc(O[C@H]4CCOC4)cc3)c2)[C@H](O)[C@@H](O)[C@@H]1O [EMPA, Empagliflozin]
- time to peak levels ([1]; after a single dose): 1.5 h
- bioavailability ([1]; humans): 78%
- half-life ([1]; in humans): ~12 h
- recovered in the feces as unchanged drug ([1]; in vivo): Approximately 40%
- expression of anti-inflammatory M2 markers ([2]; AMPK-mediated mechanism): increased
- LPS-induced ATP depletion [2]: prevented
- LPS-induced TNFα and iNOS expression [2]: attenuated
- free plasma concentration [3]: ~20 nM
- lymphocytic infiltration into the lamina propria ([4]; EMPA 10 mg/kg daily gavage, 14 days): reduced
- enterocyte injury (histological score) ([4]; EMPA 10 mg/kg daily gavage, 14 days, vs vehicle, p<0.01): no enterocyte injury; also recorded: significant decrease
- total histological score ([4]; EMPA 10 mg/kg daily gavage, 14 days, vs vehicle, p=0.006): decreased
- lamina propria neutrophils (histological score) ([4]; EMPA 10 mg/kg daily gavage, 14 days, vs vehicle, p=0.01): decreased
- colonic weight to length ratio ([4]; EMPA 10 mg/kg daily gavage, 14 days, vs vehicle, p=0.019): decreased
- fecal lipocalin-2 ([4]; EMPA 10 mg/kg daily gavage, 14 days, vs vehicle, p=0.03): decrease
- colonic TNFα (real-time qPCR) ([4]; EMPA 10 mg/kg daily gavage, 14 days, p=0.02): significant decreases
- colonic IFNγ (real-time qPCR) [4, 8]: significant decreases
- colonic IL-1β (real-time qPCR) [4, 8]: significant decreases
- body weight over the 14 days ([4]; EMPA 10 mg/kg daily gavage, vehicle treated mice continued to lose weight, p=0.04): maintained their weight
- blood glucose levels in pilot experiments ([4]; EMPA 10 mg/kg dose, pilot experiments): no effect
- blood glucose levels ([4]; EMPA-treated mice vs controls, 14 days): no significant differences
- hypoglycemia [5]: does not cause hypoglycemia
- TNFα-stimulated chemokine release [6]: decreased
- selectivity for SGLT2 over SGLT1 [7]: ~2700 fold
